Data as given in PubChem BioAssay AID624491 (Broad Institute, 2012).

system: D54 ERlucT glycosylation luciferase reporter, luminescence, 24 h; test: blockers of NLG process in reporter cells – D54 ERlucT cells, luminescence, cherry-picks, dose response (AID 624491);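 note: signal gain reflects blocked N-linked glycosylation of a luciferase reporter; actives raise luciferase signal so AC26 marks activators of the reporter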

Q: How did the AC26 turn out when `COc1cc(/C=N/NC(=O)c2ccc(-c3ccccc3)cc2)cc(OC)c1OC` was run?
A: The AC26 was 1350 nM.

Q: `Cc1nc(Nc2nc(-c3ccccc3)cc(=O)[nH]2)nc2ccccc12` was tested. Which AC26 did it give?
A: Its AC26 is 1690 nM.

Q: `NC(=O)/C=C/C(=O)Nc1ccc(Cl)cc1` was tested. Which AC26 did it give?
A: The AC26 was 15100 nM.

Q: For `O=C(CCl)N1c2ccccc2Sc2c1ccc1ccccc21`, which AC26 is on record?
A: Its AC26 is 257 nM.

Q: `Cc1nc([N+](=O)[O-])c(Br)n1Cc1ccc(Cl)c(Cl)c1` was tested. Which AC26 did it give?
A: The AC26 was 885 nM.

Q: Which AC26 does the source give for `COc1ccc(NC(=O)C2Cc3c(-c4cccc(NC(C)=O)c4)ccnc3O2)cc1OC` (stereo not drawn) here?
A: The AC26 was 2270 nM.

Q: For `Cc1ccccc1OCCOC(=O)c1c(-c2ccccc2)noc1C`, which AC26 is on record?
A: Its AC26 is 8510 nM.

Q: `CCc1ccc2[nH]c3nc(SCC(=O)NNC(=O)c4ccc(C(C)(C)C)cc4)nnc3c2c1` was tested. Which AC26 did it give?
A: The AC26 was 4110 nM.

Q: Which AC26 does the source give for `Cc1cc([N+](=O)[O-])ccc1Nc1nc2ccccc2n2cnnc12` here?
A: Its AC26 is 8280 nM.

Q: With `CCOc1ccc(S(=O)(=O)N2CCN=C2c2ccccc2)cc1` as the compound, how does the AC26 read?
A: The AC26 was 3390 nM.

Q: With `Cc1cccc(/C=N\Nc2cn[nH]c(=O)c2Cl)c1` as the compound, how does the AC26 read?
A: Its AC26 is 4560 nM.

Q: How did the AC26 turn out when `O=C(CCN1C(=O)/C(=C/c2cccs2)SC1=S)N1CCCCC1` was run?
A: Its AC26 is 1220 nM.

Q: For `COc1cc(C2c3cc4c(cc3OC(Nc3ccc(C(=O)O)cc3)C2C)OCO4)cc(OC)c1OC` (stereo not drawn), which AC26 is on record?
A: Its AC26 is 10700 nM.

Q: With `Cc1c(C(=O)C(=O)N2c3ccc(F)cc3CCC2C)c2ccccc2n1C` (stereo not drawn) as the compound, how does the AC26 read?
A: The AC26 was 5780 nM.

Q: `O=C(COC(=O)c1ccc(NS(=O)(=O)c2cccs2)cc1O)NCc1ccccc1` was tested. Which AC26 did it give?
A: Its AC26 is 4820 nM.

Q: How did the AC26 turn out when `COc1ccccc1/C=C/C(=O)/C=C/c1ccccc1O` was run?
A: The AC26 was 696 nM.

Q: How did the AC26 turn out when `O=C(N/N=C/c1ccccc1)c1sccc1OCc1ccc(F)cc1` was run?
A: Its AC26 is 2600 nM.

Q: Which AC26 does the source give for `Cc1ccc(C)n1-c1cccc(NC(=O)c2ccccc2)c1` here?
A: The AC26 was 8830 nM.

Q: `CCOc1ccc(/C=N/NC(=O)c2cc3c(OC)cccc3[nH]2)cc1` was tested. Which AC26 did it give?
A: The AC26 was 3800 nM.

Q: Which AC26 does the source give for `Cc1ccnc(NC(=O)CN2C(=O)NC(C)(c3ccc4ccccc4c3)C2=O)c1` (stereo not drawn) here?
A: Its AC26 is 11400 nM.

Q: Which AC26 does the source give for `CNC(=O)c1cccn(Cc2ccc(C(F)(F)F)cc2)c1=O` here?
A: Its AC26 is 3370 nM.

Q: Which AC26 does the source give for `Cc1ccc2nc(-c3ccc(SCC(=O)Nc4nnc(C)s4)nc3)[nH]c2c1` here?
A: The AC26 was 4860 nM.

Q: Which AC26 does the source give for `CCOC(=O)c1c(C)[nH]c(C(=O)N/N=C/c2ccc(OC)c(OC)c2)c1C` here?
A: Its AC26 is 2070 nM.

Q: How did the AC26 turn out when `COc1ccc2cc(CN(CC3CCCO3)C(=O)Nc3ccccc3OC)c(=O)[nH]c2c1` (stereo not drawn) was run?
A: The AC26 was 4020 nM.

Q: With `Cc1cccn2c(=O)c3cc(C(=O)NC4CCCCC4)n(C)c3nc12` as the compound, how does the AC26 read?
A: The AC26 was 10200 nM.

Q: With `C#CC[N+](C)(C)CCCCCCCCCCCC` as the compound, how does the AC26 read?
A: Its AC26 is 7360 nM.

Q: Which AC26 does the source give for `COc1ccc(Nc2nc3cc(-c4sccc4C)sc3c(=O)n2C)cc1OC` here?
A: Its AC26 is 477 nM.

Q: `C=C(C)Cc1c(C)c(C#N)c2nc3ccccc3n2c1NCCCN(C)C` was tested. Which AC26 did it give?
A: Its AC26 is 1080 nM.

Q: With `COc1ccc(C(=O)NCC(c2ccco2)N2CCc3ccccc32)cc1` (stereo not drawn) as the compound, how does the AC26 read?
A: Its AC26 is 2300 nM.

Q: How did the AC26 turn out when `COc1ccccc1N1CCN(S(=O)(=O)CCNC(=O)c2cc(OC)c(OC)c(OC)c2)CC1` was run?
A: The AC26 was 3850 nM.

Q: Which AC26 does the source give for `COc1cccc(NC(=O)CCCOc2cc(=O)n(C)c3ccccc23)c1` here?
A: The AC26 was 4130 nM.

Q: For `C[C@@]12C(=O)Nc3cc(Cl)ccc3C(=O)N1[C@H]1c3cc(Cl)ccc3OC[C@@H]1[C@@H]2c1ccccc1`, which AC26 is on record?
A: Its AC26 is 4040 nM.

Q: `Clc1cccc(Cl)c1Cn1cnc2c(NCc3ccco3)ncnc21` was tested. Which AC26 did it give?
A: The AC26 was 17300 nM.

Q: With `Cc1cccc2c(N)c3c(nc12)N(C)CC3` as the compound, how does the AC26 read?
A: Its AC26 is 7370 nM.

Q: `Cc1ccc(/C=N/NC(=O)c2cc(-c3cccnc3)nc3ccccc23)cc1` was tested. Which AC26 did it give?
A: Its AC26 is 1250 nM.

Q: For `CC(C)(C)n1nnnc1C(c1ccccc1)N1CCc2ccccc2C1` (stereo not drawn), which AC26 is on record?
A: Its AC26 is 13900 nM.

Q: Which AC26 does the source give for `O=C(NCc1ccccc1)C(=O)NCC1COc2ccccc2O1` (stereo not drawn) here?
A: The AC26 was 13000 nM.

Q: Which AC26 does the source give for `Cc1cccc(C(=O)Oc2ccccc2/C=N/NC(=O)c2ccc(NC(=O)C(C)(C)C)cc2)c1` here?
A: The AC26 was 1550 nM.

Q: For `COc1ccc(NC(=O)c2ccc([N+](=O)[O-])o2)cc1`, which AC26 is on record?
A: Its AC26 is 1020 nM.

Q: With `CCn1c2ccccc2c2cc(Nc3cc(C)nc4ncnn34)ccc21` as the compound, how does the AC26 read?
A: The AC26 was 69.8 nM.

Q: `CCN1CCN(c2ccc([N+](=O)[O-])cc2C(=O)c2ccc(Cl)cc2)CC1` was tested. Which AC26 did it give?
A: The AC26 was 11200 nM.

Q: How did the AC26 turn out when `CC(CCc1ccco1)NC(=O)CCc1nnc2ccc(NCc3ccc(Cl)cc3)nn12` (stereo not drawn) was run?
A: Its AC26 is 1260 nM.

Q: How did the AC26 turn out when `Cc1ccc(C)c(Cn2nnc3c(=O)[nH]c(C4CCN(C(=O)c5ccco5)CC4)nc32)c1` was run?
A: Its AC26 is 1110 nM.

Q: How did the AC26 turn out when `CCc1cccc(NC(=O)c2cc(S(=O)(=O)N(C)C)ccc2N2CCCC2)c1` was run?
A: The AC26 was 646 nM.

Q: `CNc1ccc(Br)cc(C(=O)/C=C/c2ccc(OC)cc2)c1=O` was tested. Which AC26 did it give?
A: The AC26 was 2660 nM.

Q: For `CCc1ccc2nc3nc(C)cc(C)c3c(N)c2c1`, which AC26 is on record?
A: The AC26 was 2810 nM.

Q: For `CC(=O)c1ccc(Nc2nc(-c3sc(C)nc3C)cs2)cc1`, which AC26 is on record?
A: The AC26 was 40.5 nM.

Q: Which AC26 does the source give for `CCn1c2ccccc2c2cc(NC(=O)c3cc(OC)c(OC)c(OC)c3)ccc21` here?
A: Its AC26 is 605 nM.

Q: With `CCn1ncc(C2=NOC(C(=O)NCc3ccccc3)C2)c1C` (stereo not drawn) as the compound, how does the AC26 read?
A: The AC26 was 413 nM.

Q: `N#Cc1c(-c2ccc(F)cc2)c(-c2ccc(F)cc2)nn(CCO)c1=O` was tested. Which AC26 did it give?
A: Its AC26 is 2080 nM.

Q: `COc1ccc2c(c1)C(=O)N1[C@H]3c4cc(Br)ccc4OC[C@@H]3[C@H](c3ccccc3)[C@]1(C)C(=O)N2` was tested. Which AC26 did it give?
A: The AC26 was 851 nM.

Q: `c1ccc(C2=Nn3c(nnc3-c3n[nH]c4c3CCC4)SC2)cc1` was tested. Which AC26 did it give?
A: The AC26 was 4020 nM.

Q: Which AC26 does the source give for `O=C(Nc1ccc(-c2nc3cc(NC(=O)c4cccs4)ccc3o2)cc1)c1cccs1` here?
A: The AC26 was 4310 nM.

Q: For `OCCCN=c1cc(-c2ccccc2)oc2ccc(Cl)cc12`, which AC26 is on record?
A: The AC26 was 978 nM.

Q: Which AC26 does the source give for `O=c1[nH]c(=O)n(C2CC(O)C(CO)O2)cc1I` (stereo not drawn) here?
A: Its AC26 is 880 nM.

Q: With `CCCCn1c(SCc2c(C)noc2C)nc2cc(S(N)(=O)=O)ccc21` as the compound, how does the AC26 read?
A: Its AC26 is 1190 nM.

Q: Which AC26 does the source give for `CCc1ccc(CNC(=O)Cc2ccc(NC(=O)C3=C(C)OCCS3)cc2)cc1` here?
A: Its AC26 is 352 nM.

Q: Which AC26 does the source give for `O=[N+]([O-])c1ccc(Sc2cc[n+]([O-])c3ccccc23)c([N+](=O)[O-])c1` here?
A: Its AC26 is 5960 nM.

Q: For `NC(=O)CC(NC(=O)Cc1ccc(Br)cc1)c1ccc(NCC2CC2)c([N+](=O)[O-])c1` (stereo not drawn), which AC26 is on record?
A: Its AC26 is 6670 nM.

Q: Which AC26 does the source give for `COC(=O)/C=C1\C(=O)N(c2nc3ccccc3s2)C(=S)N1c1ccc(F)cc1` here?
A: Its AC26 is 2300 nM.

Q: `Cc1cc(NCCN2CCOCC2)c2ccc3ccccc3c2n1` was tested. Which AC26 did it give?
A: Its AC26 is 3590 nM.

Q: For `COc1cc(F)ccc1-c1csc(C(NC(C)=O)c2ccccc2)n1` (stereo not drawn), which AC26 is on record?
A: The AC26 was 11.1 nM.

Q: `O=C(NCc1ccccc1Br)c1cccc2c1C(=O)c1ccc(-c3ccc(OC(F)(F)F)cc3)cc1S2(=O)=O` was tested. Which AC26 did it give?
A: Its AC26 is 4060 nM.
